# Measured values taken from patent US12577522B2, “System and method for screening therapeutic agents” (Carnegie Mellon University, priority 2020, dated 2026).
# How the values were obtained:
# [1] = tested on: MDA-MB-231 human breast cancer cell line mouse xenografts (tumor fragments); assay: 2D 96-well plate control: tumor fragment drug screening, live/dead viability and COMPUSYN combination index; assay type: cell-based; conditions: 2D 96-well control, three days, drug refreshed every 12 h
# MDA-MB-231 cell = conditions: previously reported; cited from earlier work
# [2] = Drug gradient characterization in 3D collagen scaffold by confocal microscopy; assay type: physicochemical; conditions: confocal fluorescence; doxorubicin after 24 h, left to right channel
# [3] = tested on: MDA-MB-231 human breast cancer cell line mouse xenografts (tumor fragments); assay: 3D ECM microsystem (collagen tumor-on-a-chip): tumor fragment drug screening, live/dead viability and COMPUSYN combination index; assay type: cell-based; conditions: three days
structure (smiles),measurement,setting,value
COc1cccc2c1C(=O)c1c(O)c3c(c(O)c1C2=O)C[C@@](O)(C(=O)CO)C[C@@H]3O[C@H]1C[C@H](N)[C@H](O)[C@H](C)O1 [doxorubicin],tumor viability (live/dead staining),[1],dose-dependent decrease in viability
same,median effect dose (Dm),MDA-MB-231 cell,much lower than 4-hydroxycyclophosphamide
same,diffusion profile in 3D collagen scaffold,[2],approximately linear concentration profile
same,tumor viability (live/dead staining),"[3]; 3D ECM microsystem, drug replenished every 12 h",dose-dependent decrease in viability
same,viability in 3D ECM microsystem relative to 2D controls,[3]; doses in 2D matched to 48 h simulated concentration,lower viability compared to 2D controls
